Reference: patent US20260374754A1, “N-((ISOQUINOLIN-6-YL)METHYL)-1H-PYRAZOLE-4-CARBOXAMIDE DERIVATIVES AS PLASMA KALLIKREIN INHIBITORS FOR THE TREATMENT OF HEREDITARY ANGIODEMA” (Takeda Pharmaceutical Company Limited, priority 2022, published 2026)
Structures can show the parent of a compound that is named as a salt.

molecular target: human activated kallikrein enzyme (Homo sapiens, UniProt P03952); experiment: Inhibition of human activated plasma kallikrein, fluorogenic PFR-AMC substrate, 500 pM enzyme format; format: biochemical; conditions: 500 pM activated kallikrein; 300 μM PFR-AMC; 30 min preincubation; 10 min room temperature; pH 7.5; read-out: Primary Dose Response Assay: Average EC50
Sequence (P03952 391-638 limits assumed): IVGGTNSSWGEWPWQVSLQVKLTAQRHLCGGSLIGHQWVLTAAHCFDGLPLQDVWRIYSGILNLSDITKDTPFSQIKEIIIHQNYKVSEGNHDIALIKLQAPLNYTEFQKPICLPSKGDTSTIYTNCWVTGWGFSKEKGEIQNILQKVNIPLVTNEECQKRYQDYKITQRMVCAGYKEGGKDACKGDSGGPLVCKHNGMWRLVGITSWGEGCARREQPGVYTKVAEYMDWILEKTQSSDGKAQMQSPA
Sequence (P03952 20-390 partner limits assumed): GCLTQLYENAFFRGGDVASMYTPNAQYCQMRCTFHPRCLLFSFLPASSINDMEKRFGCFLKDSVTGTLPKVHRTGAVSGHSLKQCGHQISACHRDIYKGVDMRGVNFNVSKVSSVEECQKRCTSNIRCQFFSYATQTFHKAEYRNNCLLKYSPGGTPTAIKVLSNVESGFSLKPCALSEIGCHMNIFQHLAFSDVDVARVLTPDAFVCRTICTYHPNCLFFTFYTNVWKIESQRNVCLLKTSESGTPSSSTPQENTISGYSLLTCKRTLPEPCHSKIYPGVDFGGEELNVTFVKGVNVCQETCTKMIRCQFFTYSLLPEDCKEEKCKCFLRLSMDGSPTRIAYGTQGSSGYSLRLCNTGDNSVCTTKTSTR
Method in brief: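 Using fluorogenic PFR-AMC at 300 μM, cleavage by 500 pM human activated kallikrein ran 10 min at room temperature, read at 460 nm emission (380 nm excitation). Enzyme and compounds were first preincubated 30 min in 20 mM Tris pH 7.5, 150 mM NaCl, 1 mM EDTA, 0.1% PEG-400, 0.1% Triton X-100.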

EC50 [nM]	Compound
10 to 100	Cc1ccc2nc(Cn3cc(C(=O)NCc4c(C)cc5c(NC(=O)OC(C)C)nccc5c4C)cn3)cn2c1 [Example 6, isopropyl (5,7-dimethyl-6-((1-((6-methylimidazo[1,2-a]pyridin-2-yl)methyl)-1H-pyrazole-4-carboxamido)methyl)isoquinolin-1-yl)carbamate]
1 to 10	Cc1cc2c(N)nccc2c(C)c1CNC(=O)c1cnn(Cc2ccc(CC(=O)N(C)CC3CC3)cc2)c1 [Example 204, N-((1-amino-5,7-dimethylisoquinolin-6-yl)methyl)-1-(4-(2-((cyclopropylmethyl)(methyl)amino)-2-oxoethyl)benzyl)-1H-pyrazole-4-carboxamide]
< 1	Cc1cc2c(N)nccc2c(C)c1CNC(=O)c1cnn(Cc2ccc(CC(=O)N3CC4CC4C3)nc2)c1 (centres unmarked) [Example 90, 1-((6-(2-(3-azabicyclo[3.1.0]hexan-3-yl)-2-oxoethyl)pyridin-3-yl)methyl)-N-((1-amino-5,7-dimethylisoquinolin-6-yl)methyl)-1H-pyrazole-4-carboxamide]
10 to 100	Cc1ccc2nc(Cn3cc(C(=O)NCc4c(C)cc5c(NC(=O)OCc6ccccc6)nccc5c4C)cn3)cn2c1 [Example 7, benzyl (5,7-dimethyl-6-((1-((6-methylimidazo[1,2-a]pyridin-2-yl)methyl)-1H-pyrazole-4-carboxamido)methyl)isoquinolin-1-yl)carbamate]
< 1	Cc1cc2c(N)nccc2c(C)c1CNC(=O)c1cnn(Cc2ccc(Cc3cccn4ccnc34)cc2)c1 [Example 167, N-((1-amino-5,7-dimethylisoquinolin-6-yl)methyl)-1-(4-(imidazo[1,2-a]pyridin-8-ylmethyl)benzyl)-1H-pyrazole-4-carboxamide]
> 1000	Cc1ccc2nc(Cn3cc(C(=O)NCc4c(C)cc5c(N(C(=O)OCc6ccccc6)C(=O)OCc6ccccc6)nccc5c4C)cn3)cn2c1 [Example 4, benzyl ((benzyloxy)carbonyl)(5,7-dimethyl-6-((1-((6-methylimidazo[1,2-a]pyridin-2-yl)methyl)-1H-pyrazole-4-carboxamido)methyl)isoquinolin-1-yl)carbamate]
< 1	Cc1cc2c(N)nccc2c(C)c1CNC(=O)c1cnn(Cc2ccc(CC(=O)N3CC4C(C3)C4(F)F)cc2)c1 (centres unmarked) [Example 214, N-((1-amino-5,7-dimethylisoquinolin-6-yl)methyl)-1-(4-(2-(6,6-difluoro-3-azabicyclo[3.1.0]hexan-3-yl)-2-oxoethyl)benzyl)-1H-pyrazole-4-carboxamide]
10 to 100	COCc1c(C(=O)NCc2c(C)cc3c(N)nccc3c2C)cnn1Cc1ccc(Cn2cccn2)cc1 [Example 188, 1-(4-((1H-pyrazol-1-yl)methyl)benzyl)-N-((1-amino-5,7-dimethylisoquinolin-6-yl)methyl)-5-(methoxymethyl)-1H-pyrazole-4-carboxamide]
100 to 1000	Cc1cc2c(N)nccc2c(C)c1CNC(=O)c1cnn(Cc2ccncc2)c1 [Example 87, N-((1-amino-5,7-dimethylisoquinolin-6-yl)methyl)-1-(pyridin-4-ylmethyl)-1H-pyrazole-4-carboxamide]

Second part, the molecule before the results:

Compound	EC50 [nM]
Cc1cc2c(N)nccc2c(C)c1CNc1cc(NCc2ccc(Cn3cccn3)c(C(F)(F)F)c2)ncn1 [Example 383, N^4-(4-((1H-pyrazol-1-yl)methyl)-3-(trifluoromethyl)benzyl)-N^6-((1-amino-5,7-dimethylisoquinolin-6-yl)methyl)pyrimidine-4,5-diamine]	< 1
Cc1cc2c(N)nccc2c(C)c1CNc1cc(NCc2ccc3ccccc3c2)ncn1 [Example 233, N4-((1-amino-5,7-dimethylisoquinolin-6-yl)methyl)-N6-(naphthalen-2-ylmethyl)pyrimidine-4,6-diamine]	10 to 100
Cc1cc2c(N)nccc2c(C)c1CNc1cc(N(C)Cc2ccc3ncccc3c2)ncn1 [Example 308, N^4-((1-amino-5,7-dimethylisoquinolin-6-yl)methyl)-N^6-methyl-N^6-(quinolin-6-ylmethyl)pyrimidine-4,6-diamine]	10 to 100
Cc1cc2c(N)nccc2c(C)c1CNc1cn2c(Cc3ccc4ccccc4c3)ncc2cn1 [Example 523, 5,7-dimethyl-6-(((3-(naphthalen-2-ylmethyl)imidazo[1,5-a]pyrazin-6-yl)amino)methyl)isoquinolin-1-amine]	> 1000
Cc1cc2c(N)nccc2c(C)c1CNc1cc(OCc2ccccc2)ncn1 [Example 449, 6-(((6-(benzyloxy)pyrimidin-4-yl)amino)methyl)-5,7-dimethylisoquinolin-1-amine]	> 1000
Cc1cc2c(N)nccc2c(C)c1CNc1cc(NCc2ccc(C(F)(F)n3cccn3)cc2)ncn1 [Example 382, N^4-((1-amino-5,7-dimethylisoquinolin-6-yl)methyl)-N^6-(4-(difluoro(1H-pyrazol-1-yl)methyl)benzyl)pyrimidine-4,6-diamine]	1 to 10
Cc1cc2c(N)nccc2c(C)c1CNc1cc(NCc2cc(C)c(OCc3ccccn3)c(C)c2)ncn1 [Example 353, N^4-((1-amino-5,7-dimethylisoquinolin-6-yl)methyl)-N^6-(3,5-dimethyl-4-(pyridin-2-ylmethoxy)benzyl)pyrimidine-4,6-diamine, formic acid salt]	10 to 100
Cc1cc2c(N)nccc2c(C)c1CNc1cc(NCc2ccc(Cn3cc(Cl)cc(Cl)c3=O)cc2)ncn1 [Example I-463, 1-(4-(((6-(((1-amino-5,7-dimethylisoquinolin-6-yl)methyl)amino)pyrimidin-4-yl)amino)methyl)benzyl)-3,5-dichloropyridin-2(1H)-one]	< 1
Cc1cc2c(N)nccc2c(C)c1CNc1cc(NCc2cc3ccccc3cn2)ncn1 [Example 315, N^4-((1-amino-5,7-dimethylisoquinolin-6-yl)methyl)-N^6-(isoquinolin-3-ylmethyl)pyrimidine-4,6-diamine]	1 to 10
Cc1cc2c(N)nccc2c(C)c1CNc1cc(NCc2ccc(OCc3ncco3)cc2)ncn1 [Example 351, N^4-((1-amino-5,7-dimethylisoquinolin-6-yl)methyl)-N^6-(4-(oxazol-2-ylmethoxy)benzyl)pyrimidine-4,6-diamine, formic acid salt]	1 to 10
Cc1cc2c(N)nccc2c(C)c1CNc1cc(OCc2ccc(Cn3cccn3)cc2)c2c(c1)C(=O)N(C)C2 [Example I-468, 4-((4-((1H-pyrazol-1-yl)methyl)benzyl)oxy)-6-(((1-amino-5,7-dimethylisoquinolin-6-yl)methyl)amino)-2-methylisoindolin-1-one]	1 to 10
COc1ccnc2ccc(CNc3cc(NCc4c(C)cc5c(N)nccc5c4C)ncn3)cc12 [Example 323, N^4-((1-amino-5,7-dimethylisoquinolin-6-yl)methyl)-N^6-((4-methoxyquinolin-6-yl)methyl)pyrimidine-4,6-diamine]	1 to 10
Cc1cc2c(N)nccc2c(C)c1CNc1cc(OCc2ccc(Cn3cccc(C4CC4)c3=O)cc2)cnn1 [Example 437, 1-(4-(((6-(((1-amino-5,7-dimethylisoquinolin-6-yl)methyl)amino)pyridazin-4-yl)oxy)methyl)benzyl)-3-cyclopropylpyridin-2(1H)-one]	< 1
Cc1cc2c(N)nccc2c(C)c1CNc1cc(NCc2ccc(OCc3ccccn3)cc2)ncn1 [Example 349, N^4-((1-amino-5,7-dimethylisoquinolin-6-yl)methyl)-N^6-(4-(pyridin-2-ylmethoxy)benzyl)pyrimidine-4,6-diamine, formic acid salt]	1 to 10
